Source: patent publication US20050042747A1, “Hivgp120-induced bob/gpr15 activation” (priority 2001, published 2005)

Legend:
[1] = Interaction of synthetic Bob peptides with GalCer monolayer (surface pressure); format: binding, human; settings: initial surface pressure 10 mN/m; at equilibrium; mean of three experiments ±SD
Experimental: Artificial membranes composed entirely of galactosyl ceramide with an alpha hydroxylated fatty acid were made. The surface pressure was measured with a microtensimeter (Kibron Inc., Finland) designed for the study of protein-lipid interactions. The peptides used for immunization were added to the subphase, and the surface pressure was continuously measured until equilibrium was reached. The increase in pressure was expressed in mN/m.
A monolayer of GalCer was prepared at the air-water interface at an initial surface pressure of 10 mN/m. The maximal surface surface pressure increase (Δπmax) reached at the equilibrium is indicated. The values are the mean of three separate experiments (±SD).
Galactosylceramide with an α-hydroxylated fatty acid (referred to as GalCer throughout this study) was either prepared from bovine brain (Sigma) or purified from HT-29-D4 membrane rafts (Fantini et al., 2000a). The surface pressure was measured with a microtensiometer (Kibron Inc., Finland) specially designed for studying protein-lipid interactions (Fantini et al., 2000a). The experiments were carried at 25° C. out in a laboratory equipped with a filtered air supply. A solution of GalCer was prepared extemporaneously in hexane:chloroform:methanol, 11:5:4 (v:v:v) at a concentration of 1 mg/ml. The lipid was carefully spread onto the meniscus of a pure water subphase (800 μl). The proteic ligand (GPR15/Bob peptides or HIV-1 gp120) was injected into the subphase with a 10 μl Hamilton syringe. The surface pressure was continuously measured as a function of time until reaching equilibrium corresponding to the maximal surface presure increase (Δπmax) expressed in mN/m.

[2] = test system: peripheral blood mononuclear cells; experiment: gp120-induced calcium flux in peripheral blood mononuclear cells; format: cell-based, human; settings: for inhibition of gp120IIIB-induced calcium flux, in words: pretreatment
Experimental: Normal human peripheral blood mononuclear cells were isolated by Ficoll gradient centrifugation, and loaded with the calcium sensitive dye Fluo-4. HIV gp120IIIB induced strong calcium fluxes in the range of 7 nM to 50 pM, and there was a weaker signal at 5 pM.
Experiments corresponding to those with HT-29 cells were done with peripheral blood mononuclear cells. These were isolated from the blood of a healthy, HIV-uninfected person by a Ficoll-Hypaque techique (Histopaque, Sigma), then loaded with Fluo-4 by a technique nearly identical to that used for HT-29 cells, except that Hank's buffer was used rather than Locke's, and the cells were centrifuged (2,000 g for 10 minutes) just before calcium flux measurements to improve adherence. Gp120-induced calcium fluxes were documented with as little as 5 pM gp120IIIB.

DKEASLGLWRTGSFLCK [P2, Bob peptide, first extracellular loop]
Δπ max [1]: 5.40 ± 1.52 mN/m

HAEDFARRRKRSVSL [P1, Bob peptide, internal C-ter domain]
Δπ max [1]: 1.89 ± 0.85 mN/m

KNYDFGSSTETSDSHLTK [P6, Bob peptide, internal C-ter domain]
Δπ max [1]: 2.67 ± 0.40 mN/m

MDPEETSVYLDYYYATS [P3, Bob peptide, extracellular N-ter end]
Δπ max [1]: 2.26 ± 0.12 mN/m

RELTLIDDKPYCAEKKAT [P5, Bob peptide, second extracellular loop]
Δπ max [1]: 6.86 ± 1.37 mN/m

SGLRQEHYLPSAILQ [P4, Bob peptide, third extracellular loop]
Δπ max [1]: 5.21 ± 1.06 mN/m

heparin
inhibition of gp120IIIB-induced calcium flux ([2]; 15 minute preincubation of gp120IIIB with 40 micrograms/ml at 0-4° C., 200 nM gp120IIIB): 40 fold | inhibition of gp120IIIB-induced calcium flux, in words [2]: Inhibition | inhibition of gp120IIIB-induced calcium flux, in words ([2]; listed as sodium heparin): inhibited the calcium flux
